The subject of the experiment is CEM cells HIV-1 protection, formazan growth assay. The experiment is described as follows: NCI AIDS Antiviral Assay. The following applies: for IC50: measured here: growth of uninfected CEM cells. The procedure, abridged:
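Human CEM cells, uninfected and HIV-1-infected, received five drug concentrations, and growth was read by soluble formazan assay. Compounds giving at least 50% protection were retested; reproducible 100% protection defined confirmed active.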

Each structure is given as a SMILES string. Where “and” joins values, the source holds several entries; their conditions need not be identical. Identical values can stand only once. Calls of active or inactive are those of the source.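 The calls were made as follows: active = compounds giving half or more protection of infected cells from virus-caused growth loss, again on retest; inactive = the rest.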

Regarding `C/C(=N\[N+](C)(C)C)c1ccc(C)c(C)c1`, the EC50 – broadly, the concentration giving half of the maximal effect – is > 200 µM and the IC50 (commonly the concentration that inhibits the measured activity by half) stood at 102 µM. Taken in the same sequence, the figures for `CC(=O)c1ccc([Se][Se]c2ccc(C(C)=O)cc2)cc1` were > 18.2 µM and 3.72 µM. Consider `O=C1C=CC2=[N+]([O-])C(c3ccccc3)(c3ccccc3)C(=Nc3ccccc3)C2=C1`, for which the result was inactive.

`O=C(/C(=C/c1cccc([N+](=O)[O-])c1)c1ccccc1)c1ccccc1`: the EC50 is > 6.03 µM and the half-maximal inhibitory concentration (IC50) is 4.07 µM. Regarding `COC1=CCC2=C(CC[C@H]3[C@H]2CCP3(C)=S)C1` (stereo not given in full), the outcome was inactive. Turning to `O=C1CCCC/C1=C/c1ccccc1`, the EC50 is > 200 µM and the IC50 came to 12.9 µM. On the same counts, the results for `CN(C)c1ccc(C2CC(=O)CC(c3ccc(N(C)C)cc3)C23C(=O)NC(=O)NC3=O)cc1` (stereo not given) are > 25.1 µM and > 25.1 µM.

In the case of `Cc1cc(NS(=O)(=O)c2ccc(NC(=O)c3ccc4[nH]c5ccccc5c(=O)c4c3)cc2)no1`, the EC50 was > 200 µM and the IC50 is 93.3 µM. In the case of `COc1cc2c(cc1OC)NC(=O)CC(=O)N2`, the EC50 was > 200 µM and the concentration for half-maximal inhibition (IC50) is > 200 µM. With `CN(C)CCCNC(=O)c1cc(NC(=O)c2cc(NC(=O)c3cc(NC(=O)c4ccc(C(=O)Nc5cc(C(=O)Nc6cc(C(=O)Nc7cc(C(=O)NCCCN(C)C)n(C)c7)n(C)c6)n(C)c5)nc4)cn3C)cn2C)cn1C`, the EC50 was 5.37 µM and the IC50 was > 100 µM. With `COC1=CC(=O)[C@@]2(C)C(C)[C@H](c3ccccc3)[C@H]2C1=O` (stereo not given in full), the EC50 was > 251 µM and the 50% inhibitory concentration (IC50) was > 251 µM. For `CC(C)CCCC(C)C1CCC2[C@@H]3CCC4C[C@@H](CC=C(c5cc(Cl)c(O)c(C(=O)O)c5)c5cc(Cl)c(O)c(C(=O)O)c5)CC[C@]4(C)C3CC[C@]12C` (stereo not given in full), the EC50 was 21.4 µM and the IC50 amounted to 316 µM.

As to `O=P1(N2CCCCC2)OCC2(CO1)COP(=O)(N1CCCCC1)OC2` (stereo not given), the EC50 was > 200 µM and the IC50 is > 200 µM.

On to `CCOC(=O)C1(C#N)C(c2ccccc2)CC(O)(c2ccc(Cl)cc2)C(C(=O)c2ccc(Cl)cc2)C1c1ccccc1` (stereo not given), for which the EC50 is > 12 µM and the IC50 was > 12 µM. With `N#CCCN(c1ccc(/C=C2\N=C(Cc3ccccc3)OC2=O)cc1)S(=O)(=O)c1ccccc1`, the EC50 is 240 µM and the IC50 amounted to 275 µM. In the case of `COC(=O)/C(=N\N)C(C(=O)C(=O)Nc1cccc([N+](=O)[O-])c1)c1nc2ccc(C(=O)c3ccccc3)cc2[nH]c1=O` (stereo not given), the EC50 was > 64.6 µM and the IC50 was > 64.6 µM. Take `c1ccc(-c2cnnc3c4ccccc4nn23)cc1`: the EC50 is > 200 µM and the IC50 is > 200 µM. Take `CCOC(=O)Cn1c(=O)c2nc(SC)sc2n(-c2ccccc2)c1=S`: the EC50 was > 200 µM and the IC50 is > 200 µM. For `CONc1ncnc2c1ncn2C1OC(CO)CC1F` (stereo not given), the EC50 was > 178 µM and the IC50 was > 178 µM. For `O=C(NC(Cc1c[nH]c2ccccc12)C(=O)O)/C(=C/c1ccccc1O)NC(=O)c1ccccc1` (stereo not given), the EC50 was > 200 µM and the IC50 was > 200 µM. With `O=C(Cn1c(=O)oc2ccccc21)N(c1ccccc1)c1ccccc1`, the EC50 is > 200 µM and the half-inhibitory concentration (IC50) is > 200 µM.

On to `CCCCOC(=O)/C(CC(=O)C=C(C)C)=N\NS(=O)(=O)c1ccc(C)cc1`, for which the EC50 is > 174 µM and the IC50 was > 174 µM. As to `Cc1ccc(S(=O)(=O)S/C(=N\c2ccccn2)Nc2ccccn2)cc1`, the EC50 was > 324 µM and the IC50 came out at 83.2 µM. Regarding `CC(C)(C)c1ccn[nH]1.CC(C)(C)c1ccn[nH]1.[Cl-].[Cl-].[O]=[V][O-]`, the EC50 was > 200 µM and the IC50 turned out to be 35.5 µM.

Consider `[B]C(=O)NC(CC(C)C)C(=O)NCC(=O)NC1c2ccsc2C(=O)C1O` (stereo not given) (tested in a mixture with another compound), for which the EC50 is > 200 µM and the IC50 was > 200 µM. Turning to `CC(=O)OC1CC[C@@]2(C)C(=CC[C@@H]3[C@@H]2CC[C@]2(C)Nc4c(cnn4-c4ccc(F)cc4)C[C@@H]32)C1` (stereo not given in full), the EC50 is > 10 µM and the IC50 is > 10 µM. With `NC(=O)SCC(=O)Nc1ccc2cccc3c2c1CC3`, the result was inactive.

Take `CCOC(=O)C1N(S(=O)(=O)c2ccc(C)cc2)CCC12C(c1ccc(OC)c(OC)c1)=Nc1ccccc12` (stereo not given): the result was inactive. Take `O=C(O)c1cc(N=C=S)ccc1-c1c2ccc(=O)cc-2oc2cc(O)ccc12`: the 50% effective concentration (EC50) was 43.7 µM and 44.7 µM; the IC50 is 316 µM and > 100 µM.

Turning to `CN(C)NC1=NS(=O)(=O)c2cc3c(=O)n(C)[nH]c3cc2S1`, the EC50 was > 200 µM and the IC50 is 138 µM. Consider `Cc1ccc(Nc2nc(C)c(C(=O)C/C(=N/NC(N)=S)C(=O)Nc3cc(Cl)cc(Cl)c3)s2)cc1`, for which the EC50 is > 200 µM and the IC50 was found to be 178 µM.

As for `C[C@]1(O)CC[C@H]2[C@@H]3CCC4=CC(=O)CC[C@]4(C)[C@@]3(Cl)[C@@H](Cl)C[C@@]21C`, the EC50 is > 200 µM and the IC50 was > 200 µM. For the compound `COc1ccc(C2Oc3cc(OC)c(O)cc3[C@@H]2C)cc1` (stereo not given in full), the EC50 was > 66.1 µM and the IC50 worked out at 6.46 µM. With `CCc1cccc(C(C)CC)c1N=C(NC(=O)c1ccccc1C(=O)NC(=Nc1c(CC)cccc1C(C)CC)SC)SC` (stereo not given), the EC50 is > 56.2 µM and the IC50 is > 56.2 µM. As for `CS(=O)(=O)OCCCCOS(C)(=O)=O`, the EC50 is > 204 µM and the concentration for half-maximal inhibition (IC50) is > 204 µM. As for `NC(=O)c1nnc2cc(F)c(F)cc2c1N`, the EC50 was > 200 µM and the IC50 was > 200 µM. Take `CCn1c(=O)c(N=O)c(N)n(CC(C)O)c1=O` (stereo not given): the EC50 was > 200 µM and the IC50 was > 200 µM. Turning to `NC(N)=NC(CSSCC(N=C(N)N)C(=O)O)C(=O)O` (stereo not given), the EC50 was > 200 µM and the 50% inhibitory concentration (IC50) is > 200 µM. As to `CC[N+](C)(C)C1=C([O-])C(F)(F)C1=O`, the EC50 was > 200 µM and the IC50 was > 200 µM. `CCC1NCC(=O)c2c1[nH]c1ccccc21` (stereo not given): the outcome was inactive. In the case of `COCCCNC(=O)CC(=O)NCCCOC`, the EC50 is > 1000 µM and the IC50 is > 1000 µM.

For the compound `CC(C(=O)O)C1Nc2ccccc2NC1=O` (stereo not given), the EC50 is > 200 µM and the IC50 was found to be 83.2 µM. In the case of `COc1cccc(/C=N/[N-]C(=O)c2ccncc2)c1[O-].[Mn+2].[OH3+]`, the EC50 was > 39.8 µM and the IC50 amounted to 6.61 µM. Regarding `COC[C@H]1C(=O)NCC(=O)N2N=CCC[C@H]2C(=O)N(O)[C@H](C)C(=O)O[C@@H](C(C)C)[C@H](NC(=O)[C@@](C)(O)[C@]2(O)CC[C@@H](CC(C)C)[C@H](C)O2)C(=O)N2NCCC[C@@H]2C(=O)N1O`, the EC50 was > 0.151 µM and the IC50 worked out at 0.0417 µM.

Regarding `O=C(O)c1cc(N=Nc2ccc(CCc3ccc(N=Nc4cc(C(=O)O)c(O)cc4O)cc3S(=O)(=O)O)c(S(=O)(=O)O)c2)c(O)cc1O`, the EC50 is 70.8 µM and the IC50 amounted to 135 µM. Regarding `Cc1ccc2c(c1)[nH]c(=S)n2/C=C(\c1ccccc1)S(=O)Cc1ccccc1` (stereo not given), the EC50 is > 200 µM and the IC50 was > 200 µM. Consider `CCCCCC=C(c1cc(Br)c(OC)c(C(=O)O)c1)c1cc(Br)c(OC)c(C(=O)O)c1`, for which the EC50 is > 200 µM and the IC50 came to 91.2 µM. As for `Oc1c(Cl)cccc1SSc1cccc(Cl)c1O`, the EC50 is > 200 µM and the IC50 was found to be 34.7 µM. Regarding `Cc1cccc(C(O)c2ccccn2)c1O` (stereo not given), the EC50 is > 200 µM and the half-inhibitory concentration (IC50) is > 200 µM. Take `CCC(C)C(NC(=O)C(CCCCN)NC(=O)CNC(=O)C(NC(=O)C(NC(=O)C(NC(=O)C(Cc1ccccc1)NC(=O)C(C)NC(=O)C(CCCNC(=N)N)NC(=O)CNC(=O)C1CCCN1C(=O)CNC(=O)C(CCCNC(=N)N)NC(=O)C(CCC(N)=O)NC(=O)C(NC(=O)C(CCCNC(=N)N)NC(=O)C(NC(=O)C(CO)NC(=O)C(CCCCN)NC(=O)C(CCCNC(=N)N)NC(=O)C(NC(=O)C(CC(N)=O)NC(=O)C(N)CC(N)=O)C(C)O)C(C)CC)C(C)CC)C(C)C)C(C)OC1OC(CO)C(O)C(O)C1NC(C)=O)C(C)CC)C(=O)NCC(N)=O` (stereo not given): the EC50 was found to be 24.5 µM and the 50% inhibitory concentration (IC50) was determined as 50.1 µM. Turning to `C[C@@H]1C=C[C@@H]2COC(=O)C2=C[C@@H]1c1ccccc1`, the outcome was inactive. On to `COC(=O)C1(Cc2ccc3c(c2)CCC3)Cc2ccccc2C1O` (stereo not given), for which the EC50 is > 200 µM and the IC50 was 26.9 µM. In the case of `Cc1ccc2c3c(c(=O)oc2c1)[C@H](C)C[C@@](C)(CO)O3`, the EC50 is > 200 µM and the IC50 came to 178 µM. Take `N#CC12C(=O)N3C(=NC(c4ccco4)NC3c3ccco3)C1(C#N)C(c1ccco1)NC1=C2CCCC1` (stereo not given): the EC50 is > 200 µM and the IC50 is > 200 µM. Regarding `O=c1c2cc(-c3ccccc3)sc2nc2n1N=C(c1ccc(Cl)cc1)CS2`, the EC50 is > 200 µM and the 50% inhibitory concentration (IC50) is > 200 µM. Take `C=CCC1(O)C(=O)OC2C(O)COC21O` (stereo not given): the EC50 is > 200 µM and the IC50 was > 200 µM. Take `CC(C)N(C(=O)C12C3C4C5(C#N)C3C1(C#N)C5C42I)C(C)C` (stereo not given): the EC50 was > 617 µM and the IC50 is 316 µM.

With `CC(=O)Oc1cccc2c1C(=O)CCCC2`, the EC50 is > 200 µM and the IC50 is > 200 µM. As to `[Ni].c1c[nH]cn1.c1c[nH]cn1.c1c[nH]cn1.c1c[nH]cn1.c1c[nH]cn1.c1c[nH]cn1`, the EC50 is > 66.1 µM and the concentration for half-maximal inhibition (IC50) is > 66.1 µM. For `COc1ccc(COC2C(C/[N+]([O-])=N\Nc3ccc([N+](=O)[O-])cc3)OC3OC(C)(C)OC32)cc1` (stereo not given), the EC50 is > 200 µM and the IC50 came to 12.6 µM. Take `Cc1cc(O)c2c(c1)C(C1c3cccc(O)c3C(=O)c3c(O)cc(C)cc31)c1cccc(O)c1C2=O` (stereo not given): the EC50 was > 2 µM and the half-maximal inhibitory concentration (IC50) was found to be 0.0912 µM. `N=C1C=CC2C(=Nc3ccccc3[N+]2=O)N1Cc1ccncc1` (stereo not given): the EC50 was > 22.4 µM and the IC50 is 21.4 µM.

Turning to `O=S1(=O)CCCS(=O)(=O)C(c2ccccc2)=C1c1ccccc1`, the EC50 is > 145 µM and the IC50 was found to be 50.1 µM.

Values taken from PubChem BioAssay AID179 (DTP/NCI, 2004).
